Data taken from patent publication US20260053778A1, “USE OF NOVEL PPAR ACTIVITY MODULATOR FOR PREVENTION, AMELIORATION OR TREATMENT OF DEGENERATIVE BRAIN DISEASES” (POSTECH RESEARCH AND BUSINESS DEVELOPMENT FOUNDATION, priority 2022, published 2026).

Columns and labels:
[1] = biological target: T1, HIS-tagged recombinant PPAR γ protein (Homo sapiens, UniProt P37231); assay: CNBr-drug and protein binding experiment, PPARγ; conditions: Western blotting after 24 h incubation
T1 sequence (P37231 238-503 limits assumed): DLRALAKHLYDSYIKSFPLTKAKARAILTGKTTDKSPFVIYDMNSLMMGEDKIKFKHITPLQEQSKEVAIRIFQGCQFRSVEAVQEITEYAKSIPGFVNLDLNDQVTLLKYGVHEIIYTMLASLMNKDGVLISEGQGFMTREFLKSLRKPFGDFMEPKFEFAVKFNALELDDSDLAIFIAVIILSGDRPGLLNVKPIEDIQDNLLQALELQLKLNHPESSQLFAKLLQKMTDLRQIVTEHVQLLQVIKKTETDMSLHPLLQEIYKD
Protocol: Since the computer prediction program predicted that DTMB binds to PPAR transcription factors, CNBr-drug and protein binding experiments were conducted to confirm whether DTMB actually binds to PPAR. To determine the actual degree of drug-protein binding, the reaction of the protein of the PPAR-α, β/δ, γ ligand-binding portion with the DTMB drug-bound CNBr beads was confirmed through Western blotting.
Specifically, CNBr Sepharose 4B beads were prepared and activated according to the instructions. 100 mg of CNBr-activated Sepharose 4B beads were incubated with drugs or DMSO at 4° C. for 18 h. The drug-bound beads reacted with HIS-tagged recombinant PPAR α, β/δ, and γ proteins. After 24 h of incubation, Western blotting experiments were performed to confirm whether the recombinant proteins bound to the drug-bound beads.

5×FAD mice = assay: RT-PCR of adult microglia isolated from brains of treated mice; assay type: in vivo, mouse; conditions: microglia isolated from 5×FAD mice administered DTMB
Protocol: To elucidate whether the gliosis reduction effect of DTMB administration confirmed in Example 6 was due to functional changes in microglia, brain tissues from mice administered DTMB were extracted, microglia were isolated, and the expression of genes related to inflammation and activation in microglia was analyzed to what extent they changed.
To isolate adult microglia from the brains of 5×FAD mice treated with DTMB or vehicle, a magnetic-activated cell sorting (MACS) system was used. Whole brain tissue was dissociated to the single-cell level using the gentleMACs dissociation kit (Miltenyi Biotech, Bergisch Gladbach, Germany) according to the manufacturer's instructions. To isolate the immune cell fraction, a 47% Percoll concentration gradient was applied to the single-cell mixture and centrifuged at 2,000 rpm for 10 min. Adult microglia were isolated by LS column after incubation with anti-CD11b MicroBeads (Miltenyi Biotech). RT-PCR was performed using the isolated adult microglia to analyze the expression of microglial activation and inflammation-related genes. The sample size was 3 mice per group.

BV2 cell line = assay: Cell viability assay (MTT), BV2; assay type: cell-based, mouse; conditions: BV2, 48 h, at higher concentrations
Protocol: Cell viability was measured by a chromogenic assay that biologically reduces 3-(4,5-dimethyl-thiazol-2-yl)-2,5-diphenyltetrazolium bromide (MTT) to formazan in living cells. Briefly, cells were cultured in 96-well plates in a final volume of 100 μL. After 24 h, the culture medium was replaced with fresh medium containing DTMB compound, and the cells were cultured for another 48 h. Next, MTT (dissolved in PBS at 5 mg/mL) was added to the culture medium. The cells were cultured in the dark at 37° C. for 1 h, and then the supernatant was removed from the wells. The formazan crystals were dissolved by adding total MTT solvent (4 mM HCl and 0.1% Nonidet P-40, both dissolved in isopropanol), and the absorbance was measured at 570 nm using a microplate reader, Infinite 200 Pro NanoQuant microplate reader (TECAN, Switzerland).

[2] = test system: 5×FAD Alzheimer's dementia-induced mice; assay: Y maze test in 5×FAD mice; assay type: in vivo, mouse; conditions: DTMB 10 mg/kg orally, 12 weeks
Protocol: 5×FAD (Tg6799) mice were purchased from Jackson Laboratory (Bar Harbor, ME, USA), and male transgenic mice were mated with B6/SJL hybrid female mice. Genotyping was performed by PCR analysis of tail-cut samples. In this example, 8-week-old female mice were used for drug administration, and wild-type littermates were used as controls. All procedures related to animal behavior experiments were approved by the Institutional Animal Care and Use Committee of Pohang University of Science and Technology (POSTECH IACUC). All animal experiments were performed in accordance with the principles of the Animal Welfare Act, the PHS Animal Welfare Policy, and the NIH Guide for the Care and Use of Laboratory Animals. All mice were maintained under general conditions in the POSTECH animal facility according to institutional guidelines.
To evaluate the effect of DTMB on 5×FAD mice, DTMB (10 mg/kg) and vehicle (1% carboxymethylcellulose and 10% DMSO) were orally administered to four groups (wild type, wild type+DTMB, 5×FAD, and 5×FAD+DTMB) 6 days per week for 3 months.
The measuring device consists of three branches, each of which is 42 cm long, 3 cm wide, and 12 cm high, and the angle at which the three branches folded is 120°. […] Alternation behavior is defined as entering all three branches without overlapping and was calculated using the following mathematical formula.

COc1ccc(-c2cc(=O)oc3c(C)c(OC(=O)[C@H](Cc4c[nH]c5ccccc45)NC(=O)OC(C)(C)C)ccc23)cc1 [DTMB, [4-(4-Methoxyphenyl)-8-methyl-2-oxochromen-7-yl](2S)-3-(1H-indol-3-yl)-2-[(2-methylpropan-2-yl)oxycarbonylamino]propanoate]
Binding of PPARγ ligand-binding protein to drug-bound CNBr beads [1]: binds to all subtypes of PPAR | Gene expression of Cxcl10 (5×FAD mice): decreased | Gene expression of IL-1β (5×FAD mice): decreased | Gene expression of IL-6 (5×FAD mice): decreased | Gene expression of Iba-1 (5×FAD mice): decreased | Gene expression of Itgax2 (5×FAD mice): decreased | Gene expression of TNF-α (5×FAD mice): decreased | Gene expression of Trem2 (5×FAD mice): decreased | Gene expression of clec7a (5×FAD mice): decreased | Cytotoxicity (MTT) (BV2 cell line): no cytotoxicity | Alternation behavior (Y maze) [2]: increased statistically significantly
